The source of these data is patent US9487489B2, “Halogen-substituted pyrazole derivatives as pest-control agents” (BAYER CROPSCIENCE AKTIENGESELLSCHAFT, priority 2013, dated 2016).

Experiment [1] deals with L1 larvae of the Australian sheep blowfly (Lucilia cuprina). As to the kind of experiment: Lucilia cuprina test (LUCICU). In kind it is in vivo. The settings on record: application rate 100 ppm; after 2 days. In short, it runs like this: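 About 20 L1 larvae placed in a vessel with minced horsemeat plus compound (DMSO concentrate diluted with water to the desired concentration). Kill in % scored after 2 days, 100% meaning all larvae dead.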

Experiment [2] has as its system adult dog ticks (Rhipicephalus sanguineus). Kind of experiment: Rhipicephalus sanguineus in vitro contact test with adult brown dog ticks (T2). Particulars: after 48 h. The essentials:
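Acetone solutions coated onto test tube walls and floor, giving 5 μg/cm^2 at 900 ppm. Five to ten adult ticks held per tube in the dark at room temperature for 48 h, then heated at 45-50° C for up to 5 min; efficacy is the percentage of dead or moribund ticks unable to climb away.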

Experiment [3] relates to adult castor bean ticks (Ixodes ricinus). As to the kind of experiment: Ixodes ricinus in vitro contact test with adult castor bean ticks (T3). The settings on record: after 48 h. The essentials:
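Test compound was dissolved in acetone p.a. (9 mg in 1 ml) and diluted with acetone; 250 μl were spread evenly over the inner walls and floor of 25 ml test tubes by rocking on an orbital shaker (2 h, 30 rpm). Once the solvent evaporated, 5-10 adult Ixodes ricinus ticks were added, tubes closed with perforated lids and kept horizontally in darkness at 22° C. and 90% humidity. After 48 h, ticks were placed on a 45-50° C. hotplate for up to 5 min; those motionless or unable to climb away were scored dead or moribund.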

Experiment [4] has as its system engorged adult female cattle ticks (Boophilus microplus). As to the kind of experiment: Boophilus microplus injection test (BOOPMI Inj). In kind it is in vivo. The settings on record: application rate 20 μg/animal; injection into abdomen; assessed after 7 days. In short, it runs like this:
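DMSO solution of compound (1 μl) injected into the abdomen of 5 engorged adult female ticks, which are then held in a climate-controlled room. After 7 days, efficacy is scored from laying of fertile eggs, with unclear eggs kept until larval hatch (~42 days); 100% means no fertile eggs, 0% all fertile.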

Experiment [5] concerns greenhouse red spider mite (Tetranychus urticae). Kind of experiment: Tetranychus urticae spray test, OP-resistant (TETRUR). The experiment is classed as in vivo. The settings on record: bean leaf discs, after 6 days. In short, it runs like this: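 Bean leaf discs carrying all stages of OP-resistant Tetranychus urticae were sprayed with compound formulated in acetone/dimethylformamide and diluted in water with 1000 ppm alkylaryl polyglycol ether emulsifier. Mortality (% efficacy, 100% = all mites killed) scored after 6 days.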

For experiment [6], the system named is Tick nymphs (Amblyomma hebraeum). Kind of experiment: Amblyomma hebraeum test (AMBYHE), tick nymphs immersed. The settings on record: application rate 100 ppm; immersed one minute; after 42 days. The experiment is classed as in vivo. Here is the method:
A. Amblyomma hebaraeum Test (AMBYHE)
Solvent: dimethyl sulphoxide
To produce a suitable preparation of active compound, 10 mg of active compound are mixed with 0.5 ml of dimethyl sulfoxide, and the concentrate is diluted with water to the desired concentration.
Tick nymphs (Amblyomma hebraeum) are placed into perforated plastic beakers and immersed in the desired concentration for one minute. The ticks are transferred on filter paper into a Petri dish and stored in a climate-controlled cabinet.
After 42 days, the kill in % is determined. 100% means that all of the ticks have been killed; 0% means that none of the ticks have been killed.

For experiment [7], the system named is adult cat fleas (Ctenocephalides felis). As to the kind of experiment: Ctenocephalides felis in vitro contact test with adult cat fleas (T1). The settings on record: after 48 h. In short, it runs like this:
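Test compound was dissolved in acetone p.a. (9 mg per 1 ml) and diluted as needed. 250 μl was spread evenly over the inner walls and floor of a 25 ml test tube by rotating on an orbital shaker for 2 h at 30 rpm. Once the solvent evaporated, 5-10 adult Ctenocephalides felis were added. Tubes were capped with a perforated plastic lid and kept horizontal at room temperature and ambient humidity.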

Take `Cn1nc(C(F)(F)C(F)(F)F)c(C(F)(F)F)c1-n1cc(-c2ccc(Cl)c(C(=O)NC3(C#N)CC3)c2)cn1` [Ic-2]: the “efficacy (kill in %)” value in experiment [1] and in experiment [6] was 100% in each case. The “efficacy (dead or moribund ticks)” value in experiment [2] (application rate 1 μg/cm^2), in experiment [2] (application rate 5 μg/cm^2), in experiment [3] (application rate 1 μg/cm^2) and in experiment [3] (application rate 5 μg/cm^2) was 100% each time. Besides, in experiment [4], the “efficacy (laying of fertile eggs)” value was 100%. Further, in experiment [5] (application rate 100 g/ha), the efficacy in % turned out to be 100%. Also, the “efficacy (dead or moribund fleas)” value in experiment [7] (application rate 1 μg/cm^2) and in experiment [7] (application rate 5 μg/cm^2) was 100% in each case.

With `Cn1nc(C(F)(F)C(F)(F)F)c(C(F)(F)F)c1-n1cc(-c2ccc(Cl)c(C(=O)NCC(F)(F)F)c2)cn1` [Ic-23], the “efficacy (kill in %)” value in experiment [1] and in experiment [6] was 100% each time. The “efficacy (dead or moribund ticks)” value in experiment [2] (application rate 1 μg/cm^2), in experiment [2] (application rate 5 μg/cm^2), in experiment [3] (application rate 1 μg/cm^2) and in experiment [3] (application rate 5 μg/cm^2) was 100% in each case. Also, the “efficacy (laying of fertile eggs)” value in experiment [4] is 100%. The same molecule had an efficacy in % in experiment [5] (application rate 100 g/ha) of 100%. Besides, the “efficacy (dead or moribund fleas)” value in experiment [7] (application rate 1 μg/cm^2) and in experiment [7] (application rate 5 μg/cm^2) was 100% throughout.

As for `Cn1nc(C(F)(F)C(F)(F)F)c(C(F)(F)F)c1-n1ccc(-c2ccc(Cl)c(C(=O)NC3(C#N)CC3)c2)c1` [Ia-1], the “efficacy (kill in %)” value in experiment [1] and in experiment [6] was 100% throughout. The “efficacy (dead or moribund ticks)” value in experiment [2] (application rate 1 μg/cm^2), in experiment [2] (application rate 5 μg/cm^2), in experiment [3] (application rate 1 μg/cm^2) and in experiment [3] (application rate 5 μg/cm^2) was 100% in each case. Also, in experiment [4], the “efficacy (laying of fertile eggs)” value is listed as 100%. In experiment [5] (application rate 100 g/ha), the efficacy in % is reported as 100%. For the same molecule, the “efficacy (dead or moribund fleas)” value in experiment [7] (application rate 1 μg/cm^2) and in experiment [7] (application rate 5 μg/cm^2) was 100% in each case.

For the molecule `Cn1nc(C(F)(F)C(F)(F)F)c(C(F)(F)F)c1-n1cnc(-c2ccc(Cl)c(C(=O)NC3CC3)c2)c1` [Ib-3], the “efficacy (kill in %)” value in experiment [1] and in experiment [6] was 100% each time. Further, the “efficacy (dead or moribund ticks)” value in experiment [2] (application rate 1 μg/cm^2) amounted to 100%; in experiment [2] (application rate 5 μg/cm^2), 80%; in experiment [3] (application rate 1 μg/cm^2), 80%; in experiment [3] (application rate 5 μg/cm^2), 80%. The “efficacy (laying of fertile eggs)” value in experiment [4] came out at 100%. For the same molecule, the efficacy in % in experiment [5] (application rate 100 g/ha) was found to be 100%. Moreover, the “efficacy (dead or moribund fleas)” value in experiment [7] (application rate 1 μg/cm^2) and in experiment [7] (application rate 5 μg/cm^2) was 100% throughout.

Regarding `Cn1nc(C(F)(F)C(F)(F)F)c(C(F)(F)F)c1-n1cc(-c2cc(Cl)c(Cl)c(C(=O)NC3CC3)c2)cn1` [Ic-94], the “efficacy (kill in %)” value in experiment [1] and in experiment [6] was 100% in each case. Besides, the “efficacy (dead or moribund ticks)” value in experiment [2] (application rate 1 μg/cm^2), in experiment [2] (application rate 5 μg/cm^2), in experiment [3] (application rate 1 μg/cm^2) and in experiment [3] (application rate 5 μg/cm^2) was 100% in each case. Moreover, the “efficacy (laying of fertile eggs)” value in experiment [4] is on record as 100%. In experiment [5] (application rate 500 g/ha), the efficacy in % is 100%. Further, the “efficacy (dead or moribund fleas)” value in experiment [7] (application rate 1 μg/cm^2) and in experiment [7] (application rate 5 μg/cm^2) was 100% in each case.

Consider `Cn1nc(C(F)(F)C(F)(F)F)c(C(F)(F)F)c1-n1cc(-c2ccc(Cl)c(C(=O)NC3(C(N)=S)CC3)c2)cn1` [Ic-11], for which the “efficacy (kill in %)” value in experiment [1] and in experiment [6] was 100% in each case. Besides, the “efficacy (dead or moribund ticks)” value in experiment [2] (application rate 1 μg/cm^2) stood at 100%; in experiment [2] (application rate 5 μg/cm^2), 100%; in experiment [3] (application rate 1 μg/cm^2), 80%; in experiment [3] (application rate 5 μg/cm^2) it was 100%. Further, in experiment [4], the “efficacy (laying of fertile eggs)” value came out at 100%. In experiment [5] (application rate 100 g/ha), this molecule displayed an efficacy in % of 90%. The “efficacy (dead or moribund fleas)” value in experiment [7] (application rate 1 μg/cm^2) and in experiment [7] (application rate 5 μg/cm^2) was 100% throughout.
